Laboratory results reported in patent publication US6638981B2, “Topical compositions and methods for treating pain” (EpiCept Corporation, priority 2001, dated 2003).
Counter-ions that a name gives are not always drawn.

Assay: Chemical and physical stability studies under ICH storage conditions (extraction, HPLC, appearance)
Type: physicochemical
Conditions: in Composition A; for calculated initial percentage of actives: before storage, HPLC; for calc. percentage of actives after storage for one month, 25° C. / calc. percentage of actives after storage for two months, 25° C.: 25° C./60% RH; for calc. percentage of actives after storage for one month, 30° C. / calc. percentage of actives after storage for two months, 30° C.: 30° C./60% RH; for calc. percentage of actives after storage for one month, 40° C. / calc. percentage of actives after storage for two months, 40° C.: 40° C./75% RH

Row | SMILES | calculated initial percentage of actives [%] | calc. percentage of actives after storage for one month, 25° C. [%] | calc. percentage of actives after storage for two months, 25° C. [%] | calc. percentage of actives after storage for one month, 30° C. [%] | calc. percentage of actives after storage for two months, 30° C. [%] | calc. percentage of actives after storage for one month, 40° C. [%] | calc. percentage of actives after storage for two months, 40° C. [%]
1 | CN(C)CCC=C1c2ccccc2CCc2ccccc21 [Amitriptyline Hydrochloride, Amitriptyline hydrochloride] | 102.5 | 103 | 101 | 102 | 102 | 103 | 102
2 | CNC1(c2ccccc2Cl)CCCCC1=O (stereo not shown) [Ketamine Hydrochloride, Ketamine hydrochloride] | 100.4 | 103 | 100 | 102 | 100 | 103 | 102
3 | COC(=O)c1ccc(O)cc1 [Methylparaben] | 104.4 | 103 | 101 | 102 | 102 | 102 | 102
4 | CCCOC(=O)c1ccc(O)cc1 [Propylparaben] | 101.8 | 102 | 102 | 102 | 103 | 102 | 103
